PubChem BioAssay (NCI)
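Each compound was tested at five concentrations against cells in 96-well plates for 48 hours. GI50 = concentration required for 50% inhibition of growth. TGI marks complete inhibition of growth.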

Experiments:
Assay in all cases: DTP human tumour cell line panel, 48 h
[1] = tested on: MALME-3M melanoma
[2] = tested on: KM12 colon
[3] = tested on: HCT-15 colon
[4] = tested on: MCF7 breast
[5] = tested on: UACC-62 melanoma
[6] = tested on: U251 CNS
[7] = tested on: SF-268 CNS
[8] = tested on: RPMI-8226 leukemia
[9] = tested on: HT29 colon
[10] = tested on: NCI-H226 lung

SMILES	TGI [1] [µM]	TGI [2] [µM]	TGI [3] [µM]	TGI [4] [µM]	TGI [5] [µM]	TGI [6] [µM]	TGI [7] [µM]	TGI [8] [µM]	TGI [9] [µM]	TGI [10] [µM]	GI50 [1] [µM]	GI50 [2] [µM]	GI50 [3] [µM]	GI50 [4] [µM]	GI50 [5] [µM]	GI50 [6] [µM]	GI50 [7] [µM]	GI50 [8] [µM]	GI50 [9] [µM]	GI50 [10] [µM]
CSc1nc2c(ncn2C2OCC(O)C(O)C2O)c(=O)n1C (stereo not drawn)	> 100	> 100	> 100	> 100	> 100	> 100	> 100	> 100	> 100	> 100	–	–	–	–	–	–	–	–	–	–
O=C(Nc1cccc2c1[nH]c1c(-c3ccccc3)nccc12)c1ccccc1[N+](=O)[O-]	> 100	> 100	41.2	–	–	> 100	> 100	> 100	> 100	9.7	–	–	–	–	–	–	–	–	–	–
CN1CCN(Cc2ccc(NC(=O)c3cccc(C#Cc4cnc(N)c5ncccc45)c3F)cc2C(F)(F)F)CC1	1.4	6.51	1.35	1.72	13.1	1.43	14.7	13.2	1.53	1.97	0.675	0.332	0.546	0.793	2.84	0.741	5.13	2.28	0.677	0.647
O=C1C=CC(=O)c2c1ccc1c3ccccc3n(-c3ccccc3[N+](=O)[O-])c21	5.63	35.8	9	20	10.2	21.2	6.82	> 24.1	> 74.1	50.3	–	–	–	–	–	–	–	–	–	–
COc1ccc2[nH]c3c(C)c4ccnc(NCCCN(C)CCCNc5ccc6ncn7c8ccccc8c(=O)c5c67)c4c(C)c3c2c1	5.92	4.65	3.45	2.61	9.18	1.12	17.3	4.56	1.03	2.54	–	–	–	–	–	–	–	–	–	–
COc1cccc(NC(=O)C(=O)C(C(=O)c2ccccc2F)C2OC(=O)c3ccccc32)c1 (stereo not drawn)	–	> 100	> 100	–	> 100	36.2	> 100	96.1	> 100	63.5	–	–	–	–	–	–	–	–	–	–
COc1cc2c(cc1OC)C(=O)/C(=C/c1cc(OC)c(OC)c(OC)c1)C2	> 100	> 100	> 100	> 100	> 100	> 100	–	> 100	> 100	> 100	–	–	–	–	–	–	–	–	–	–
O=C1C(Cl)N(c2cccc([N+](=O)[O-])c2)C1c1c[nH]c2ccccc12 (stereo not drawn)	14.1	49.7	–	–	32.4	56.6	> 100	52.2	43.7	–	–	–	–	–	–	–	–	–	–	–
COC1(O)c2cccc(Cl)c2C(=O)N1C1(C(N)=O)CCCCC1 (stereo not drawn)	> 100	> 100	> 100	> 100	> 100	> 100	> 100	> 100	> 58	> 100	–	–	–	–	–	–	–	–	–	–
NC12CCC(CC1=O)C2 (stereo not drawn)	> 100	> 100	> 100	> 100	> 100	> 100	> 100	> 100	> 100	> 100	–	–	–	–	–	–	–	–	–	–
O=Cc1ccc(CCl)cc1	–	60.3	31.9	–	27.3	35.4	66.9	–	34.2	–	–	–	–	–	–	–	–	–	–	–
